Patent US20230015532A1, “PHARMACEUTICAL COMPOSITION, FOR PREVENTING OR TREATING FIBROSIS, COMPRISING PHEOPHORBIDE COMPOUND AS ACTIVE INGREDIENT” (PAEAN BIOTECHNOLOGY INC., priority 2019, published 2023)

System: phosphorylated Smad3 and phosphorylated ERK in CCD8-Lu cells
Assay: Western blotting of phosphorylated proteins of TGF-β signaling (Experimental Example 5)
Type: cell-based, human
Conditions: 5 μM, 6 hours after 5 ng/ml TGF-β
Procedure: A cell-based assay experiment was performed using Western blotting assay to determine the effect of pheophorbide a on phosphorylation in the TGF-β signaling pathway. CCD8-Lu cells, which are human lung-derived fibroblasts, were cultured in the DMEM medium containing 10% FBS. About 2×10^5 cells were then inoculated into a 6 well plate, cultured for 24 hours, and subjected to the deficient condition in the DMEM medium from which FBS was removed for about 24 hours. 24 hours later, following the treatment with TGF-β at a concentration of 5 ng/ml, fibrosis of cells was induced for 6 hours. Then, the cells were treated with pheophorbide a obtained in Preparation Example 2 or the therapeutic agent for pulmonary fibrosis and further cultured for 18 hours. Then, the negative control group was treated with nothing, the positive control group was treated with TGF-β alone at a concentration of 5 ng/ml, and the experimental groups were treated with TGF-β at a concentration of 5 ng/ml and 6 hours later, with pheophorbide a at a concentration of 5 μM and nintedanib at a concentration of 1 μM, respectively. […] The separated supernatant was obtained and transferred to a new microtube and then the protein was quantified using a bicinchoninic acid assay (BCA assay) protein quantitative kit. […]

Substance: pheophorbide a
- expression of phosphorylated Smad3 and phosphorylated ERK induced by TGF-β: remarkably inhibited
